Results on 26 compounds are retold here after patent US8492376B2, “Heteroaryl-cyclohexyl-tetraazabenzo[e]azulenes” (Hoffmann-La Roche Inc., priority 2010, dated 2013).

The structures appear in SMILES notation. Where a name gives a salt, the structure may show the parent alone.

The target of the experiment is T1, human V1a receptor (Homo sapiens, UniProt P37288).
T1 construct: expressed in transfected cells; host or cells: HEK293 cells, transiently transfected; cell membranes
T1 sequence (P37288 whole entry): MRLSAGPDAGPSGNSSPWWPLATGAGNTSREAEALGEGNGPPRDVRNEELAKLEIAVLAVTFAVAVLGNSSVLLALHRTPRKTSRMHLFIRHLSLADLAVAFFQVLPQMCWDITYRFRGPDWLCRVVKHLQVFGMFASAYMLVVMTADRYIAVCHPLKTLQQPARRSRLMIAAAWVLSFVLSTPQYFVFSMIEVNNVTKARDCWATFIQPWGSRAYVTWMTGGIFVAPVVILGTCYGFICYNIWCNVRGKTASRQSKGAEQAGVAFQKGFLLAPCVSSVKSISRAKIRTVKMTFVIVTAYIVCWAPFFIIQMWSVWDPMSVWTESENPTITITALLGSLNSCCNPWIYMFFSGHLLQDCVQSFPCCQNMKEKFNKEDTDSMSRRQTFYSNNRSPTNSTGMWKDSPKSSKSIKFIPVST
The experiment in a line: human V1a receptor binding studies (3H-Vasopressin, SPA beads). Conditions: membranes from HEK293 cells transiently transfected with human V1a receptor, Ki calculated from IC50 by the Cheng-Prussoff equation, read-out: pKi (hV1a) (converted). The method, then: The human V1a receptor was cloned by RT-PCR from total human liver RNA. The coding sequence was subcloned in an expression vector after sequencing to confirm the identity of the amplified sequence. […] Cell membranes were prepared from HEK293 cells transiently transfected with the expression vector and grown in 20 liter fermenters with the following protocol.
50 g of cells are resuspended in 30 ml freshly prepared ice cold Lyses buffer (50 mM HEPES, 1 mM EDTA, 10 mM magnesium dichloride adjusted to pH=7.4+complete cocktail of protease inhibitor (Roche Diagnostics)). Homogenized with Polytron for 1 min and solicited on ice for 2×2 minutes at 80% intensity (Vibrate solicitor). The preparation is centrifuged 20 min at 500 g at 4° C., the pellet is discarded and the supernatant centrifuged 1 hour at 43′000 g at 4° C. (19′000 rpm). The pellet is resuspended in 12.5 ml Lyses buffer+12.5 ml sucrose 20% and homogenized using a Polytron for 1-2 min. The protein concentration is determined by the Bradford method and aliquots are stored at −80° C. until use. For binding studies 60 mg Yttrium silicate SPA beads (Habersham®) are mixed with an aliquot of membrane in binding buffer (50 mM Tris, 120 mM sodium chloride, 5 mM potassium chloride, 2 mM calcium dichloride, 10 mM magnesium dichloride) for 15 minutes with mixing. 50 μl of bead/membrane mixture is then added to each well of a 96 well plate, followed by 50 μl of 4 nM 3H-Vasopressin (American Radiolabeled Chemicals). For total binding measurement 100 μl of binding buffer are added to the respective wells, for non-specific binding 100 μl of 8.4 mM cold vasopressin and for compound testing 100 μl of a serial dilution of each compound in 2% dimethyl sulfoxide. The plate is incubated 1 h at room temperature, centrifuged 1 min at 1000 g and counted on a Packard Top-Count. Non-specific binding counts are subtracted from each well and data is normalized to the maximum specific binding set at 100%. To calculate an IC50 the curve is fitted using a non-linear regression model (XLfit) and the Ki is calculated using the Cheng-Prussoff equation.
On to `Fc1cccnc1[C@H]1CC[C@@H](c2nnc3n2-c2ccc(Cl)cc2CNC3)CC1` [Example 46, cis-8-Chloro-1-[4-(3-fluoro-pyridin-2-yl)-cyclohexyl]-5,6-dihydro-4H-2,3,5,10b-tetraaza-benzo[e]azulene], for which the Ki is 200 nM.
For `Cc1cc(C)nc([C@H]2CC[C@H](c3nnc4n3-c3ccc(Cl)cc3CNC4)CC2)n1` [Example 64, trans-8-Chloro-1-[4-(4,6-dimethyl-pyrimidin-2-yl)-cyclohexyl]-5,6-dihydro-4H-2,3,5,10b-tetraaza-benzo[e]azulene hydrochloride] the value was 18.6 nM; for `CN1Cc2cc(Cl)ccc2-n2c(nnc2[C@H]2CC[C@H](c3ccc(F)cn3)CC2)C1` [Example 24, trans-8-Chloro-1-[4-(5-fluoro-pyridin-2-yl)-cyclohexyl]-5-methyl-5,6-dihydro-4H-2,3,5,10b-tetraaza-benzo[e]azulene], 1 nM.
Consider `CCc1cccc([C@H]2CC[C@H](c3nnc4n3-c3ccc(Cl)cc3CN(C(=O)OC(C)(C)C)C4)CC2)n1` [Example 7, trans-8-Chloro-1-[4-(6-ethyl-pyridin-2-yl)-cyclohexyl]-4H,6H-2,3,5,10b-tetraaza-benzo[e]azulene-5-carboxylic acid tert-butyl ester], for which the Ki is 1 nM.
For `CN1Cc2cc(Cl)ccc2-n2c(nnc2[C@H]2CC[C@H](c3cc(Cl)ccn3)CC2)C1` [Example 27, trans-8-Chloro-1-[4-(4-chloro-pyridin-2-yl)-cyclohexyl]-5-methyl-5,6-dihydro-4H-2,3,5,10b-tetraaza-benzo[e]azulene] the value was 0.537 nM; for `Cc1nccc([C@H]2CC[C@H](c3nnc4n3-c3ccc(Cl)cc3CN(C)C4)CC2)n1` [Example 68, trans-8-Chloro-5-methyl-1-[4-(2-methyl-pyrimidin-4-yl)-cyclohexyl]-5,6-dihydro-4H-2,3,5,10b-tetraaza-benzo[e]azulene], 126 nM.
For `Fc1cccnc1[C@H]1CC[C@H](c2nnc3n2-c2ccc(Cl)cc2CN(C2CCC2)C3)CC1` [Example 33, trans-8-Chloro-5-cyclobutyl-[4-(3-fluoro-pyridin-2-yl)-cyclohexyl]-5,6-dihydro-4H-2,3,5,10b-tetraaza-benzo[e]azulene], the Ki was 0.302 nM.
As to `Cc1nccc([C@H]2CC[C@H](c3nnc4n3-c3ccc(Cl)cc3CN(C(=O)OC(C)(C)C)C4)CC2)n1` [Example 66, trans-8-Chloro-1-[4-(2-methyl-pyrimidin-4-yl)-cyclohexyl]-4H,6H-2,3,5,10b-tetraaza-benzo[e]azulene-5-carboxylic acid tert-butyl ester], the Ki was 9.77 nM.
Turning to `Cc1nccnc1[C@H]1CC[C@H](c2nnc3n2-c2ccc(Cl)cc2CN(C(=O)OC(C)(C)C)C3)CC1` [Example 75, trans-8-Chloro-1-[4-(3-methyl-pyrazin-2-yl)-cyclohexyl]-4H,6H-2,3,5,10b-tetraaza-benzo[e]azulene-5-carboxylic acid tert-butyl ester], the Ki was 1.2 nM.
`Clc1ccc2c(c1)CNCc1nnc([C@H]3CC[C@H](c4cc(Cl)ccn4)CC3)n1-2` [Example 26, trans-8-Chloro-1-[4-(4-chloro-pyridin-2-yl)-cyclohexyl]-5,6-dihydro-4H-2,3,5,10b-tetraaza-benzo[e]azulene]: the Ki is 1 nM.
The result for `CN(C)CC(=O)N1Cc2cc(Cl)ccc2-n2c(nnc2[C@H]2CC[C@H](c3ncccc3F)CC2)C1` [Example 39, trans-1-{8-Chloro-1-[4-(3-fluoro-pyridin-2-yl)-cyclohexyl]-4H,6H-2,3,5,10b-tetraaza-benzo[e]azulen-5-yl}-2-dimethylamino-ethanone formate] reads 2.51 nM.
The result for `CCN1Cc2cc(Cl)ccc2-n2c(nnc2[C@H]2CC[C@H](c3ncccc3F)CC2)C1` [Example 31, trans-8-Chloro-5-ethyl-[4-(3-fluoro-pyridin-2-yl)-cyclohexyl]-5,6-dihydro-4H-2,3,5,10b-tetraaza-benzo[e]azulene] reads 0.562 nM.
Take `CN1Cc2cc(Cl)ccc2-n2c(nnc2[C@H]2CC[C@H](c3ncccc3F)CC2)C1` [Example 30, trans-8-Chloro-1-[4-(3-fluoro-pyridin-2-yl)-cyclohexyl]-5-methyl-5,6-dihydro-4H-2,3,5,10b-tetraaza-benzo[e]azulene]: the Ki was 0.603 nM.
`Fc1ccc2c(c1)CNCc1nnc([C@H]3CC[C@H](c4ncccc4F)CC3)n1-2` [Example 43, trans-8-Fluoro-[4-(3-fluoro-pyridin-2-yl)-cyclohexyl]-5,6-dihydro-4H-2,3,5,10b-tetraaza-benzo[e]azulene]: the Ki is 24.5 nM.
For `CC(C)N1Cc2cc(Cl)ccc2-n2c(nnc2[C@H]2CC[C@H](c3ncccc3F)CC2)C1` [Example 32, trans-8-Chloro-5-isopropyl-[4-(3-fluoro-pyridin-2-yl)-cyclohexyl]-5,6-dihydro-4H-2,3,5,10b-tetraaza-benzo[e]azulene] the value was 0.562 nM; for `CC(C)(C)OC(=O)N1Cc2cc(Cl)ccc2-n2c(nnc2[C@H]2CC[C@H](c3cccc(F)n3)CC2)C1` [Example 19, trans-8-Chloro-1-[4-(6-fluoro-pyridin-2-yl)-cyclohexyl]-4H,6H-2,3,5,10b-tetraaza-benzoazulene-5-carboxylic acid tert-butyl ester], 0.603 nM; for `CN1Cc2cc(Cl)ccc2-n2c(nnc2[C@H]2CC[C@H](c3cccc(Cl)n3)CC2)C1` [Example 18, trans-8-Chloro-1-[4-(6-chloro-pyridin-2-yl)-cyclohexyl]-5-methyl-5,6-dihydro-4H-2,3,5,10b-tetraaza-benzo[e]azulene], 0.603 nM.
Turning to `Clc1ccc2c(c1)CNCc1nnc([C@H]3CC[C@H](c4ncccc4Cl)CC3)n1-2` [Example 83, trans-8-Chloro-1-[4-(3-chloro-pyridin-2-yl)-cyclohexyl]-5,6-dihydro-4H-2,3,5,10b-tetraaza-benzo[e]azulene], the Ki is 7.24 nM.
As for `CS(=O)(=O)N1Cc2cc(Cl)ccc2-n2c(nnc2[C@H]2CC[C@H](c3ncccc3F)CC2)C1` [Example 40, trans-8-Chloro-1-[4-(3-fluoro-pyridin-2-yl)-cyclohexyl]-5-methanesulfonyl-5,6-dihydro-4H-2,3,5,10b-tetraaza-benzo[e]azulene], the Ki is 0.178 nM.
As for `Cc1cnc(C)c([C@H]2CC[C@H](c3nnc4n3-c3ccc(Cl)cc3CN(C)C4)CC2)n1` [Example 80, trans-8-Chloro-1-[4-(3,6-dimethyl-pyrazin-2-yl)-cyclohexyl]-5-methyl-5,6-dihydro-4H-2,3,5,10b-tetraaza-benzo[e]azulene], the Ki is 7.24 nM.
As to `CN1Cc2cc(Cl)ccc2-n2c(nnc2[C@H]2CC[C@H](c3ncccn3)CC2)C1` [Example 60, trans-8-Chloro-5-methyl-1-(4-pyrimidin-2-yl-cyclohexyl)-5,6-dihydro-4H-2,3,5,10b-tetraaza-benzo[e]azulene], the Ki is 2.19 nM.
Consider `COc1cccc([C@H]2CC[C@H](c3nnc4n3-c3ccc(Cl)cc3CN(C)C4)CC2)n1` [Example 15, trans-8-Chloro-1-[4-(6-methoxy-pyridin-2-yl)-cyclohexyl]-5-methyl-5,6-dihydro-4H-2,3,5,10b-tetraaza-benzo[e]azulene], for which the Ki is 3.31 nM.
Regarding `COc1cccc([C@H]2CC[C@H](c3nnc4n3-c3ccc(Cl)cc3CNC4)CC2)n1` [Example 14, trans-8-Chloro-1-[4-(6-methoxy-pyridin-2-yl)-cyclohexyl]-5,6-dihydro-4H-2,3,5,10b-tetraaza-benzo[e]azulene], the Ki is 56.2 nM.
For `CN1Cc2cc(Cl)ccc2-n2c(nnc2[C@H]2CC[C@H](c3cccnc3Cl)CC2)C1` [Example 53, trans-8-Chloro-1-[4-(2-chloro-pyridin-3-yl)-cyclohexyl]-5-methyl-5,6-dihydro-4H-2,3,5,10b-tetraaza-benzo[e]azulene] the value was 13.8 nM.
As for `Cc1cncc([C@H]2CC[C@H](c3nnc4n3-c3ccc(Cl)cc3CN(C(=O)OC(C)(C)C)C4)CC2)n1` [Example 72, trans-8-Chloro-1-[4-(6-methyl-pyrazin-2-yl)-cyclohexyl]-4H,6H-2,3,5,10b-tetraaza-benzo[e]azulene-5-carboxylic acid tert-butyl ester], the Ki was 1.2 nM.
In the case of `CCc1cccc([C@H]2CC[C@H](c3nnc4n3-c3ccc(Cl)cc3CN(C)C4)CC2)n1` [Example 9, trans-8-Chloro-1-[4-(6-ethyl-pyridin-2-yl)-cyclohexyl]-5-methyl-5,6-dihydro-4H-2,3,5,10b-tetraaza-benzo[e]azulene], the Ki is 1.1 nM.
